Data: US10835500B2, “Medicament for accelerated wound healing” (Symrise AG, priority 2014, dated 2020)

Biological target: T1, OR2AT4 (human olfactory receptor, endogenously expressed in HaCaT cells) (Homo sapiens, UniProt A6NND4)
T1 construct: OR2AT4, endogenous, HaCaT cells, calcium; endogenous in cells; host or cells: HaCaT cells
T1 sequence (A6NND4 1-320): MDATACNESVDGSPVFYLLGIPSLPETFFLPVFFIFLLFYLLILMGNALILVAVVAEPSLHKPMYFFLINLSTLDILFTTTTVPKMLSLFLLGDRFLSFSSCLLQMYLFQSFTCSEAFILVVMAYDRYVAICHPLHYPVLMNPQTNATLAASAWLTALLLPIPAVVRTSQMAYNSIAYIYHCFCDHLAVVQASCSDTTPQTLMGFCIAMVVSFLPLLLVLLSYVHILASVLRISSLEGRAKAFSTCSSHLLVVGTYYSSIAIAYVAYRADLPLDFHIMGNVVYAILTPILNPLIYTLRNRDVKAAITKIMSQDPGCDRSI
Assay: Calcium imaging, dose-dependent activation of HaCaT cells by Sandalore, fourth application (FIG. 9D)
Type: cell-based
Conditions: HaCaT keratinocytes, endogenous OR2AT4, intracellular calcium signal amplitude, 0.0125-10 mM
From the text: A method established at the Department of Cell Physiology of Ruhr University Bochum for deorphanization studies is calcium imaging, in which activation of an OR by an odorant is visualized by a change in the intracellular calcium concentration of transfected cells using a fluorescent dye [cf. Wetzel et al. in: J. Neurosci. 19, pp. 7426-7433 (1999); Spehr et al. in: Science 299, pp. 2054-2058 (2003); Neuhaus et al. in: J. Biol. Chem. 284, pp. 16218-16225 (2009)]. In this method, the Hana3A cells are briefly (20 s) stimulated with an odorant and selected for odorant screenings of high concentrations (up to 1 mM) in order to confirm activation of ORs weakly expressed in Hana3A cells.
For detection of OR2AT4 at the transcript level, RNA of various skin cell types and skin biopsy specimens was isolated, and RT-PCR was carried out. Transcripts of OR2AT4 were detected in human primary keratinocytes of various differentiation stages, HaCaT cells, and human skin biopsy specimens (full thickness skin) (FIG. 6). […] In contrast, no expression of the receptor was detected in adipocytes or fibroblasts (FIG. 6, center). […]
Effect of the OR2AT4 ligand Sandalore® on intracellular calcium concentration of cultivated keratinocytes. […] Right: Quantitative evaluation of calcium signals in 4-time application of Sandalore® (500 μM). […]

For `CC1=CCC(CCC(C)C(C)O)C1(C)C` (stereo not shown) [Sandalore], the EC50 was 110 µM.
